Tests used:
[1] = test system: PXR target genes cyp3a11, cyp2c, and oatp2; assay: Northern analysis of PXR target genes in primary mouse hepatocytes; format: cell-based; details: 10 μM, 24 h, FIG. 5
Protocol: Primary mouse hepatocytes were treated with compounds (10 μM), and Northern analysis was performed using the probes as described in Example III.
Additionally, a Northern blot analysis of PXR target genes can be used to determine whether or not a molecule or compound is a PXR agonist. […] In this approach, hepatocytes are isolated, cultured in vitro, and exposed to a molecule or compound suspected to be a PXR agonist. Total RNA of the hepatocytes is isolated and subject to Northern blot analysis with probes of PXR target genes' fragments. The PXR target genes have transcriptional regulatory regions that interact with the DNA binding domain of a PXR. When a PXR agonist interacts or binds to the ligand binding domain of a PXR, the DNA binding domain of a PXR interacts with the transcriptional regulatory region of the target genes and activates the expression of the target genes. Consequently, an enhanced expression of target genes is observed in the Northern blot analysis. Commonly used target genes' fragments include cyp3a11, nucleotides from #1,065 to #1,569 of GenBank accession no. X60452; cyp2c, nucleotides from #787 to #1,193 of GenBank accession no. AK008580; and oatp2, nucleotides 2,124-2,486 of GenBank accession no. NM_021471. gapdh, nucleotides from #590 to #1,089 of GenBank accession no. NM_008094, is used as a control since gapdh is not regulated by the activation of a PXR. […]

mouse PXR = biological target: T1, mouse PXR (Mus musculus, UniProt O54915); assay: GAL-mouse PXR luciferase reporter gene assay in transfected CV-1 cells; format: cell-based; details: 10 μM; CV-1 cells; FIG. 3(a), FIG. 8(a)
T1 sequence (O54915 104-431): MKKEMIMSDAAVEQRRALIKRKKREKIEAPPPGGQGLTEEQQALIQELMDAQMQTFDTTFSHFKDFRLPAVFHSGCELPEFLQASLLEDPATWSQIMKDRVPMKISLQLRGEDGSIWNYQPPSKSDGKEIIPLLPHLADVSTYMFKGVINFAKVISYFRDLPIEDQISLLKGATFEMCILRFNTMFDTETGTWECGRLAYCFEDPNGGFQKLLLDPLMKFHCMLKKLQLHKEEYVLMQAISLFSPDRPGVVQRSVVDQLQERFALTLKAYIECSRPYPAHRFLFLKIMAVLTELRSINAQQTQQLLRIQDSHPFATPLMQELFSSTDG
Protocol: CV-1 cells were transiently transfected with a GAL-mouse PXR expression vector, a GAL4 reporter construct, and a β-galactosidase vector as an internal control. Where noted, the bile acid transporter NTCP was added to the transfection to promote the transport of membrane-impermeable bile acids. Transfected cells were exposed to the indicated compounds (10 μM each), and fold activation was determined using luciferase and β-galactosidase enzyme activity assays. […] The transfected CV-1 cells were treated with multiple concentrations of each sterol. Error bars in this figure and subsequent figures represent the standard error of the mean (SEM) from representative experiments.
It is questioned whether β-cholestane-3α, 7α, 12α-triol (Triol) levels were elevated in whole liver extracts from CYP27 −/− mice. To show the level of 5β-cholestane-3α, 7α, 12α-triol in mouse liver extract, wild-type or CYP27 −/−mouse liver tissue (0.5 g) was extracted with 7.5 ml of ethyl acetate/methanol (2:1, vol/vol) along with 5β-cholestane-3β,5α,6β-triol (25 μg) as an internal control for extraction efficiency. […] The extraction was repeated three times, and the organic fraction was pooled and evaporated. To remove the vast excess of cholesterol that interferes with subsequent gas chromatography-mass spectroscopy analysis, the evaporated residue was dissolved in 0.5 ml of chloroform/acetone (35:25, vol/vol) and applied to a Bond Elut SI cartridge (Varian, 500 mg). Cholesterol was removed by washing with 6 ml of chloroform/acetone (35:25, vol/vol), and sterols were eluted with 7 ml of chloroform/acetone/methanol (35:25:20, vol/vol/vol). The sterol fraction was evaporated and dissolved in acetonitrile, and a portion was silylated with N,O-bis(trimethylsilyl)-trifluoroacetamide containing 1% trimethylchlorosilane (Pierce). The silylated material was analyzed by using a Shimadzu model GC-17A gas chromatograph with a QP5000 mass spectral detector and a Hewlett-Packard Ultra 2 (cross-linked-siloxane) column. The injector port was kept at 250° C., interface temperature was kept at 280° C., and oven temperature was kept at 50° C. followed by a gradient of 30° C. min^−1 up to 300° C. The electron impact ionization source was at 70 eV. 5β-cholestane-3α, 7α, 12α-triol levels were determined by comparison to a standard curve. For transfection studies, the sterol fraction was dissolved in DMSO and added to the cell-culture media. containing DMEM with 10% delipidated FBS.

## CC(=O)[C@H]1[C@H](C#N)C[C@H]2[C@@H]3CC=C4C[C@@H](O)CC[C@]4(C)[C@H]3CC[C@@]21C [PCN, pregnenolone-16α-carbonitrile]
[1]
  induction of PXR target genes cyp3a11, cyp2c, oatp2 (in words): activated expression of the PXR target genes cyp3a11, cyp2c, and oatp2
Mouse PXR
  activation of GAL-mouse PXR (in words): very effective agonist
